The values below come from the supplement of paper PMC10307832.

Holding throughout (experiment): relative viability (nuclei count vs DMSO), 5 days (fraction); higher = more cells survive
Compound in the assay “EHT 1864 + Phenformin”: C1COCCN1CC2=CC(=O)C(=CO2)OCCCCCSC3=C4C=CC(=CC4=NC=C3)C(F)(F)F [EHT 1864] + N=C(N)NC(=N)NCCc1ccccc1 [Phenformin] (partner 250 µM)
The method in brief: (§1)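 Lung cancer cell lines in 1536-well plates were dosed by pin tool the day after seeding, either with one drug alone or with a fixed anchor-drug dose plus five library-drug doses (not always all listed) in √10 steps. After 5 days, cells were fixed and their nuclei stained in one step (final 0.05% Triton X-100, 1% formaldehyde, 1 ug/ml Hoechst), then counted on 4× images. Relative viability is the nuclei count in treated wells divided by that in vehicle wells. Values are medians of duplicate plates.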

Compound in the assay “EHT 1864 + Navitoclax”: C1COCCN1CC2=CC(=O)C(=CO2)OCCCCCSC3=C4C=CC(=CC4=NC=C3)C(F)(F)F [EHT 1864] + CC1(C)CCC(c2ccc(Cl)cc2)=C(CN2CCN(c3ccc(C(=O)NS(=O)(=O)c4ccc(N[C@H](CCN5CCOCC5)CSc5ccccc5)c(S(=O)(=O)C(F)(F)F)c4)cc3)CC2)C1 [Navitoclax] (partner 0.5 µM)
In short, it runs like this: as §1

Compound in the assay “EHT 1864 + Pemetrexed”: C1COCCN1CC2=CC(=O)C(=CO2)OCCCCCSC3=C4C=CC(=CC4=NC=C3)C(F)(F)F [EHT 1864] + Nc1nc2[nH]cc(CCc3ccc(C(=O)N[C@@H](CCC(=O)O)C(=O)O)cc3)c2c(=O)[nH]1 [Pemetrexed] (partner 0.2 µM)
The method in brief:
as §1

Compound in the assay “EHT 1864 + Trametinib”: C1COCCN1CC2=CC(=O)C(=CO2)OCCCCCSC3=C4C=CC(=CC4=NC=C3)C(F)(F)F [EHT 1864] + CC(=O)Nc1cccc(-n2c(=O)n(C3CC3)c(=O)c3c(Nc4ccc(I)cc4F)n(C)c(=O)c(C)c32)c1 [Trametinib] (partner 0.02 µM)
In short, it runs like this: as §1

Take LU99A: the relative viability with EHT 1864 + Phenformin (first compound 0.04 µM) is 0.811; with EHT 1864 + Phenformin (first compound 0.1265 µM), 0.557; with EHT 1864 + Phenformin (first compound 0.4 µM) it was 0.821; in the assay with EHT 1864 + Phenformin (first compound 1.265 µM), 0.857; with EHT 1864 + Phenformin (first compound 4 µM) it was 0.808; with EHT 1864 + Navitoclax (first compound 0.04 µM) it was 0.689. For the same cell line, the relative viability with EHT 1864 + Navitoclax (first compound 0.1265 µM) is 0.566; in the assay with EHT 1864 + Navitoclax (first compound 0.4 µM), 0.716; with EHT 1864 + Navitoclax (first compound 1.265 µM) it was 0.818; with EHT 1864 + Navitoclax (first compound 4 µM), 0.933; with EHT 1864 + Pemetrexed (first compound 0.04 µM), 0.196; in the assay with EHT 1864 + Pemetrexed (first compound 0.1265 µM), 0.178. The relative viability with EHT 1864 + Pemetrexed (first compound 0.4 µM) came to 0.179; with EHT 1864 + Pemetrexed (first compound 1.265 µM), 0.186; with EHT 1864 + Pemetrexed (first compound 4 µM) it was 0.19; with EHT 1864 + Trametinib (first compound 0.04 µM), 0.531; in the assay with EHT 1864 + Trametinib (first compound 0.1265 µM), 0.428; with EHT 1864 + Trametinib (first compound 0.4 µM) it was 0.487. In addition, the relative viability in the assay with EHT 1864 + Trametinib (first compound 1.265 µM) came out at 0.452; with EHT 1864 + Trametinib (first compound 4 µM), 0.565.
Take NCI-H1355: the relative viability in the assay with EHT 1864 + Phenformin (first compound 0.04 µM) was determined as 0.471; with EHT 1864 + Phenformin (first compound 0.1265 µM) it was 0.425; with EHT 1864 + Phenformin (first compound 0.4 µM), 0.447; with EHT 1864 + Phenformin (first compound 1.265 µM), 0.446; with EHT 1864 + Phenformin (first compound 4 µM), 0.433; in the assay with EHT 1864 + Navitoclax (first compound 0.04 µM) it was 1.04. Besides, the relative viability with EHT 1864 + Navitoclax (first compound 0.1265 µM) stood at 0.843; with EHT 1864 + Navitoclax (first compound 0.4 µM) it was 0.907; with EHT 1864 + Navitoclax (first compound 1.265 µM), 0.904; in the assay with EHT 1864 + Navitoclax (first compound 4 µM), 0.838; with EHT 1864 + Pemetrexed (first compound 0.04 µM) it was 1.14; in the assay with EHT 1864 + Pemetrexed (first compound 0.1265 µM), 0.872. Besides, the relative viability with EHT 1864 + Pemetrexed (first compound 0.4 µM) turned out to be 1.02; with EHT 1864 + Pemetrexed (first compound 1.265 µM), 1.1; in the assay with EHT 1864 + Pemetrexed (first compound 4 µM), 0.985; with EHT 1864 + Trametinib (first compound 0.04 µM), 0.461; in the assay with EHT 1864 + Trametinib (first compound 0.1265 µM), 0.39; with EHT 1864 + Trametinib (first compound 0.4 µM) it was 0.393. The relative viability stood at 0.452 in the assay with EHT 1864 + Trametinib (first compound 1.265 µM) and 0.412 with EHT 1864 + Trametinib (first compound 4 µM).
For NCI-H520, the relative viability was 0.517 with EHT 1864 + Phenformin (first compound 0.04 µM); 0.422 in the assay with EHT 1864 + Phenformin (first compound 0.1265 µM); 0.785 with EHT 1864 + Phenformin (first compound 0.4 µM); 0.669 with EHT 1864 + Phenformin (first compound 1.265 µM); 0.711 with EHT 1864 + Phenformin (first compound 4 µM); 0.999 with EHT 1864 + Navitoclax (first compound 0.04 µM). In addition, the relative viability in the assay with EHT 1864 + Navitoclax (first compound 0.1265 µM) was 1.07; in the assay with EHT 1864 + Navitoclax (first compound 0.4 µM), 1.06; with EHT 1864 + Navitoclax (first compound 1.265 µM), 1.08; with EHT 1864 + Navitoclax (first compound 4 µM), 1.06; with EHT 1864 + Pemetrexed (first compound 0.04 µM), 0.67; with EHT 1864 + Pemetrexed (first compound 0.1265 µM) it was 0.588. The relative viability in the assay with EHT 1864 + Pemetrexed (first compound 0.4 µM) is 0.758; in the assay with EHT 1864 + Pemetrexed (first compound 1.265 µM), 0.627; with EHT 1864 + Pemetrexed (first compound 4 µM), 0.604; with EHT 1864 + Trametinib (first compound 0.04 µM), 0.692; with EHT 1864 + Trametinib (first compound 0.1265 µM) it was 0.628; in the assay with EHT 1864 + Trametinib (first compound 0.4 µM), 0.732. Moreover, the figures for the relative viability with EHT 1864 + Trametinib (first compound 1.265 µM) and with EHT 1864 + Trametinib (first compound 4 µM) were 0.659 and 0.67, respectively.
Consider NCI-H661, for which the relative viability came to 0.339 with EHT 1864 + Phenformin (first compound 0.04 µM); 0.273 with EHT 1864 + Phenformin (first compound 0.1265 µM); 0.301 with EHT 1864 + Phenformin (first compound 0.4 µM); 0.302 in the assay with EHT 1864 + Phenformin (first compound 1.265 µM); 0.269 with EHT 1864 + Phenformin (first compound 4 µM); 0.904 in the assay with EHT 1864 + Pemetrexed (first compound 0.04 µM). Moreover, the relative viability with EHT 1864 + Pemetrexed (first compound 0.1265 µM) stood at 0.884; with EHT 1864 + Pemetrexed (first compound 0.4 µM), 0.871; in the assay with EHT 1864 + Pemetrexed (first compound 1.265 µM) it was 0.844; with EHT 1864 + Pemetrexed (first compound 4 µM) it was 0.682; in the assay with EHT 1864 + Trametinib (first compound 0.04 µM), 0.527; with EHT 1864 + Trametinib (first compound 0.1265 µM) it was 0.53. Moreover, the relative viability was 0.616 in the assay with EHT 1864 + Trametinib (first compound 0.4 µM), 0.565 in the assay with EHT 1864 + Trametinib (first compound 1.265 µM) and 0.498 with EHT 1864 + Trametinib (first compound 4 µM).
